In patent US20250122202A1, “EGFR INHIBITOR, PREPARATION METHOD THEREFOR AND USE THEREOF” (SHANDONG NEW TIME PHARMACEUTICAL CO., LTD., priority 2021, published 2025):

What follows are molecules tested against EGFR-Del19/T790M/C797S kinase (Homo sapiens, UniProt P00533, C797S/T790M, form not given) (assay: In-vitro enzyme experiment 2 (HTRF kinase assay), EGFR Del19 T790M C797S). Conditions: read-out: enzyme inhibition IC50 (nM) EGFR-Del19/T790M/C797S.
Format: biochemical
Procedure: The specific experiment was as follows: • 1. […] Test method of activity of compound • a) a compound diluent was transferred to each well of an assay plate (784075, Greiner) using Echo 550; • b) the assay plate was sealed and centrifuged at 1,000 g for 1 min; • c) 2×EGFR (D770-N771 ins NPG T790M) was prepared in a 1× kinase buffer; • d) 5 μl of the 2×EGFR (D770-N771 ins NPG T790M) was added to a 384-well assay plate (784075, Greiner); • e) the assay plate was centrifuged at 1,000 g for 30 s and incubated at room temperature for 10 min; • f) 2× TK-substrate-biotin (2 μM) and ATP were added to the 1× kinase buffer and mixed; • g) the reaction was started after adding 5 μl of the TK-substrate-biotin (2 μM) and ATP mixture; • h) the assay plate was centrifuged at 1,000 g for 30 s; and the assay plate was sealed and incubated at room temperature for 40 min; • i) 4× Sa-XL 665 was prepared in an HTRF detection buffer; • j) 5 μl of the Sa-XL 665 and 5 μl of a TK-antibody-cryptate were added to each well of the assay plate; • k) the assay plate was centrifuged at 1,000 g for 30 s and incubated at room temperature for 1 h; and • l) fluorescence signals at 615 nm (cryptate) and 665 nm (XL665) were read on an Envision 2104 reader. • 3. Data analysis • 3.1 Calculation of ratio (665/615 nm) of each well • 3.2 Calculation of inhibition rate
[formula] • 3.3 Calculation of IC50 value of compound and drawing dose-effect curve of compound • IC50 values were calculated using GraphPad 6.0 by applying a non-linear regression curve (dose-effect relationship-variable slope) of the logarithm of the compound concentration versus the inhibition rate.
The preparation of the kinase buffer, the test method of the activity of the compound, and the data analysis referred to the relevant definitions in example 117, wherein step c) of the test method of the activity of the compound was replaced by preparing 2×EGFR Del19 T790M C797S in the 1× kinase buffer.

EGFR-Del19/T790M/C797S kinase, sequence (P00533 25-1210 T790M/C797S limits assumed, form open): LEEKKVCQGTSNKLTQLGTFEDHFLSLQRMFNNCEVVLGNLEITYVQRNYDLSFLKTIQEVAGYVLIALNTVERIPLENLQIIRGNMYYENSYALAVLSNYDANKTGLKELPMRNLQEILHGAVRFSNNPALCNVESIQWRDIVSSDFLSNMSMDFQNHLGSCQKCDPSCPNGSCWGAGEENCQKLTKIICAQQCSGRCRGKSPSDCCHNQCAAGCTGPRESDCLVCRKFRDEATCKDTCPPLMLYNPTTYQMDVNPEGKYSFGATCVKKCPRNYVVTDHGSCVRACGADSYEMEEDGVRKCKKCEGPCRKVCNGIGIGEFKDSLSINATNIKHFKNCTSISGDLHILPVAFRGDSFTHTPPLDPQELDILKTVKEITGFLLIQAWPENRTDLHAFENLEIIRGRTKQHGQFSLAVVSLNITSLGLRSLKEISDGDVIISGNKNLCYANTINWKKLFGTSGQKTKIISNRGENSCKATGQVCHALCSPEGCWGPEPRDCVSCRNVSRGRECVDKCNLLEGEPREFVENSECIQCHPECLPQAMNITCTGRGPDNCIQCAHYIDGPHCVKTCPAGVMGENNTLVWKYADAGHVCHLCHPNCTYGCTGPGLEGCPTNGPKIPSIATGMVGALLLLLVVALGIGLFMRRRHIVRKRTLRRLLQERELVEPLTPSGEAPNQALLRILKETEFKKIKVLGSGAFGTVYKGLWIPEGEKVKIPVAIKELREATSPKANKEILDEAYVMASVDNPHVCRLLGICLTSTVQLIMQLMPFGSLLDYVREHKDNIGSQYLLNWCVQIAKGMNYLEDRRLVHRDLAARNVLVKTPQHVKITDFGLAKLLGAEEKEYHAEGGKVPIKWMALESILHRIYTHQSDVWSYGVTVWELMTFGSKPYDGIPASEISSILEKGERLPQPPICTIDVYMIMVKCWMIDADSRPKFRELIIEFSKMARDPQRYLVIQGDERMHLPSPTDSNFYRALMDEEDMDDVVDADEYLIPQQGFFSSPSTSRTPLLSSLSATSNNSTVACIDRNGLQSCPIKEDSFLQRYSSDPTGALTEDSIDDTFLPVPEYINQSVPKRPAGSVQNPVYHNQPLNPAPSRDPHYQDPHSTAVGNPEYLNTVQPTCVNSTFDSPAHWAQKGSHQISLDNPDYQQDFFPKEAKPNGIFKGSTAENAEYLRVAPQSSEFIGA

SMILES	IC50
CN1CCN(c2ccc(Nc3nc(NCC4CCOCC4)c4c(C(=O)c5ccc(F)cc5)c[nH]c4n3)cc2)CC1 [Example 59]	100 to 600 nM
CN1CCN(c2ccc(Nc3nc(NC4CCN(S(=O)(=O)C5CC5)CC4)c4c(C(=O)c5ccc(F)cc5)c[nH]c4n3)cc2)CC1 [Example 63]	100 to 600 nM
CN1CCN(c2ccc(Nc3nc(N[C@H]4CCOC4)c4c(C(=O)c5ccc(F)cc5)c[nH]c4n3)cc2)CC1 [Example 67]	100 to 600 nM
CN1CCN(c2ccc(Nc3nc(N[C@@H]4CCOC4)c4c(C(=O)c5ccc(F)cc5)c[nH]c4n3)cc2)CC1 [Example 68]	100 to 600 nM
CO[C@H]1CC[C@H](Nc2nc(Nc3ccc(N4CCN(C)CC4)cc3)nc3[nH]cc(C(=O)c4ccc(F)cc4)c23)CC1 [Example 73]	100 to 600 nM
COc1cc(N2CCN(C)CC2)ccc1Nc1nc(N[C@H]2CC[C@H](CO)CC2)c2c(C(=O)c3ccc(F)cc3)c[nH]c2n1 [Example 80]	100 to 600 nM
O=C(c1ccc(F)cc1)c1c[nH]c2nc(Nc3ccc(N4CCOCC4)c(F)c3)nc(N[C@H]3CC[C@H](CO)CC3)c12 [Example 82]	100 to 600 nM
CN1CCN(c2ccc(Nc3nc(OC4CCOCC4)c4c(C(=O)c5ccc(F)cc5)c[nH]c4n3)cc2)CC1 [Example 84]	100 to 600 nM
CN1CCC(Nc2nc(Nc3ccc(N4CCN(C)CC4)cc3)nc3[nH]cc(C(=O)c4ccc(F)cc4)c23)CC1 [Example 85]	100 to 600 nM
O=C(c1ccc(F)cc1)c1c[nH]c2nc(Nc3ccc(N4CCOCC4)cc3)nc(N[C@@H]3CC[C@@H](CO)OC3)c12 [Example 94]	10 to 100 nM
O=C(c1ccccc1)c1c[nH]c2nc(Nc3ccc(N4CCOCC4)cc3)nc(N[C@H]3CC[C@H](CO)CC3)c12 [Example 98]	100 to 600 nM
O=C(c1ccc(F)c(F)c1F)c1c[nH]c2nc(Nc3ccc(N4CCOCC4)cc3)nc(N[C@H]3CC[C@H](CO)CC3)c12 [Example 108]	100 to 600 nM
COc1nn(C)cc1Nc1nc(N[C@H]2CC[C@H](CO)CC2)c2c(C(=O)c3ccc(F)cc3)c[nH]c2n1 [Example 112]	100 to 600 nM

The molecules below were run on A549 EGFR-WT (assay: Cell proliferation inhibition experiment (CCK-8), A549). Conditions: Homo sapiens, A549, 72 h, read-out: cell proliferation inhibition IC50 (μM) A549.

SMILES	IC50
COc1cc(N2CCC(N3CCN(C)CC3)CC2)ccc1Nc1ncc(Cl)c(Nc2ccccc2P(C)(C)=O)n1 [Brigatinib, reference compound]	6.13 µM
CN1CCN(c2ccc(Nc3nc(N[C@@H]4CCCN(S(=O)(=O)C5CC5)C4)c4c(C(=O)c5ccc(F)cc5)c[nH]c4n3)cc2)CC1 [Example 3]	2.67 µM

Same assay, conditions: Homo sapiens, A549, 72 h, read-out: cell proliferation inhibition IC50 (μM) A549, 72 h, CCK-8; Table 5 numeric

SMILES	IC50
Cn1cc(Nc2nc(N[C@@H]3CCCN(S(=O)(=O)C4CC4)C3)c3c(C(=O)c4ccc(F)cc4)c[nH]c3n2)cn1 [Example 4]	6.53 µM
CN1CCN(c2ccc(Nc3nc(N[C@H]4CCCN(S(=O)(=O)C5CC5)C4)c4c(C(=O)c5ccc(F)cc5)c[nH]c4n3)cc2)CC1 [Example 21]	0.61 µM
COc1cc(N2CCOCC2)ccc1Nc1nc(N[C@H]2CC[C@H](CO)CC2)c2c(C(=O)c3ccc(F)cc3)c[nH]c2n1 [Example 81]	0.92 µM
CC(C)N1CCC(Nc2nc(Nc3ccc(N4CCOCC4)cc3)nc3[nH]cc(C(=O)c4ccc(F)cc4)c23)CC1 [Example 99]	0.76 µM
O=C(c1cc(F)cc(F)c1)c1c[nH]c2nc(Nc3ccc(N4CCOCC4)cc3)nc(N[C@H]3CC[C@H](CO)CC3)c12 [Example 101]	0.46 µM
O=C(c1ccc(F)cc1Cl)c1c[nH]c2nc(Nc3ccc(N4CCOCC4)cc3)nc(N[C@H]3CC[C@H](CO)CC3)c12 [Example 105]	0.29 µM
